Test results from ChEMBL document CHEMBL3885881, “DrugMatrix”.

Species: Rattus norvegicus
Experiment: DrugMatrix - Regimen: Daily Repeat
Type: toxicity, organism-based, Sprague-Dawley
Design: regimen Daily Repeat, gender Male, age 6-8 weeks
Settings: in vivo, sc, […], route mini-PUMP - SUBCUTANEOUS, dose 0.44 mg/Kg, dose level High, vehicle 100 % SALINE; for ABSOLUTE BASOPHIL / ABSOLUTE EOSINOPHIL / ABSOLUTE LYMPHOCYTE / ABSOLUTE MONOCYTE / ABSOLUTE SEGMENTED NEUTROPHIL / BASOPHIL / EOSINOPHIL / ERYTHROCYTE COUNT / HEMATOCRIT / HEMOGLOBIN / LEUKOCYTE COUNT / LYMPHOCYTE / MEAN CORPUSCULAR HEMOGLOBIN / MEAN CORPUSCULAR HEMOGLOBIN CONCENTRATION / MEAN CORPUSCULAR VOLUME / MONOCYTE / NEUTROPHIL / NUCLEATED RED BLOOD CELLS / PLATELET COUNT: tissue Blood; for ALANINE AMINOTRANSFERASE / ALBUMIN / ALKALINE PHOSPHATASE / ASPARTATE AMINOTRANSFERASE / BLOOD UREA NITROGEN / CARBON DIOXIDE / CHLORIDE / CHOLESTEROL / CREATININE / GLUCOSE / LACTATE DEHYDROGENASE / LIPASE / PHOSPHORUS / POTASSIUM / SODIUM / TOTAL BILIRUBIN / TOTAL PROTEIN / URIC ACID: tissue Plasma

Structure (SMILES): CNC[C@H](O)c1cccc(O)c1 [PHENYLEPHRINE]
- ABSOLUTE BASOPHIL (72 h, time 3 day): 0 CELLS/uL
- ABSOLUTE EOSINOPHIL (72 h, time 3 day): 55.67 CELLS/uL
- ABSOLUTE LYMPHOCYTE (72 h, time 3 day): 14419.33 CELLS/uL
- ABSOLUTE MONOCYTE (72 h, time 3 day): 594.67 CELLS/uL
- ABSOLUTE SEGMENTED NEUTROPHIL (72 h, time 3 day): 1063.67 CELLS/uL
- BASOPHIL (72 h, time 3 day): 0%
- EOSINOPHIL (72 h, time 3 day): 0.33%
- ERYTHROCYTE COUNT (72 h, time 3 day): 5.8 x10E6/uL
- HEMATOCRIT (72 h, time 3 day): 34.93%
- HEMOGLOBIN (72 h, time 3 day): 13 G/DL
- LEUKOCYTE COUNT (72 h, time 3 day): 16.13 x10E3/uL
- LYMPHOCYTE (72 h, time 3 day): 89.33%
- MEAN CORPUSCULAR HEMOGLOBIN (72 h, time 3 day): 22.43 pg
- MEAN CORPUSCULAR HEMOGLOBIN CONCENTRATION (72 h, time 3 day): 37.23 G/DL
- MEAN CORPUSCULAR VOLUME (72 h, time 3 day): 60.33 fL
- MONOCYTE (72 h, time 3 day): 3.67%
- NEUTROPHIL (72 h, time 3 day): 6.67%
- NUCLEATED RED BLOOD CELLS (72 h, time 3 day): 0.33 /100WBC
- PLATELET COUNT (72 h, time 3 day): 1250 x10E3/uL
- ALANINE AMINOTRANSFERASE (72 h, time 3 day): 43.33 u/L
- ALBUMIN (72 h, time 3 day): 3.87 G/DL
- ALKALINE PHOSPHATASE (72 h, time 3 day): 289 u/L
- ASPARTATE AMINOTRANSFERASE (72 h, time 3 day): 78.67 u/L
- BLOOD UREA NITROGEN (72 h, time 3 day): 16 mg/dL
- CARBON DIOXIDE (72 h, time 3 day): 25.67 mmol/L
- CHLORIDE (72 h, time 3 day): 102.67 MEQ/L
- CHOLESTEROL (72 h, time 3 day): 76 mg/dL
- CREATININE (72 h, time 3 day): 0.16 mg/dL
- GLUCOSE (72 h, time 3 day): 149 mg/dL
- LACTATE DEHYDROGENASE (72 h, time 3 day): 363 u/L
- LIPASE (72 h, time 3 day): 9.33 u/L
- PHOSPHORUS (72 h, time 3 day): 13.17 mg/dL
- POTASSIUM (72 h, time 3 day): 6.76 MEQ/L
- SODIUM (72 h, time 3 day): 148.13 MEQ/L
- TOTAL BILIRUBIN (72 h, time 3 day): 0.17 mg/dL
- TOTAL PROTEIN (72 h, time 3 day): 6.13 G/DL
- URIC ACID (72 h, time 3 day): 1.83 mg/dL
- ABSOLUTE BASOPHIL (120 h, time 5 day): 0 CELLS/uL
- ABSOLUTE EOSINOPHIL (120 h, time 5 day): 45.67 CELLS/uL
- ABSOLUTE LYMPHOCYTE (120 h, time 5 day): 14706.67 CELLS/uL
- ABSOLUTE MONOCYTE (120 h, time 5 day): 166.33 CELLS/uL
- ABSOLUTE SEGMENTED NEUTROPHIL (120 h, time 5 day): 1714.67 CELLS/uL
- BASOPHIL (120 h, time 5 day): 0%
- EOSINOPHIL (120 h, time 5 day): 0.33%
- ERYTHROCYTE COUNT (120 h, time 5 day): 6.03 x10E6/uL
- HEMATOCRIT (120 h, time 5 day): 35.63%
- HEMOGLOBIN (120 h, time 5 day): 13.2 G/DL
- LEUKOCYTE COUNT (120 h, time 5 day): 16.63 x10E3/uL
- LYMPHOCYTE (120 h, time 5 day): 88.33%
- MEAN CORPUSCULAR HEMOGLOBIN (120 h, time 5 day): 21.9 pg
- MEAN CORPUSCULAR HEMOGLOBIN CONCENTRATION (120 h, time 5 day): 37.03 G/DL
- MEAN CORPUSCULAR VOLUME (120 h, time 5 day): 59.07 fL
- MONOCYTE (120 h, time 5 day): 1%
- NEUTROPHIL (120 h, time 5 day): 10.33%
- NUCLEATED RED BLOOD CELLS (120 h, time 5 day): 0 /100WBC
- PLATELET COUNT (120 h, time 5 day): 1498.33 x10E3/uL
- ALANINE AMINOTRANSFERASE (120 h, time 5 day): 48.33 u/L
- ALBUMIN (120 h, time 5 day): 3.97 G/DL
- ALKALINE PHOSPHATASE (120 h, time 5 day): 321.67 u/L
- ASPARTATE AMINOTRANSFERASE (120 h, time 5 day): 89.67 u/L
- BLOOD UREA NITROGEN (120 h, time 5 day): 14 mg/dL
- CARBON DIOXIDE (120 h, time 5 day): 27.67 mmol/L
- CHLORIDE (120 h, time 5 day): 103.33 MEQ/L
- CHOLESTEROL (120 h, time 5 day): 71 mg/dL
- CREATININE (120 h, time 5 day): 0.15 mg/dL
- GLUCOSE (120 h, time 5 day): 166 mg/dL
- LACTATE DEHYDROGENASE (120 h, time 5 day): 145.33 u/L
- LIPASE (120 h, time 5 day): 9 u/L
- PHOSPHORUS (120 h, time 5 day): 12.6 mg/dL
- POTASSIUM (120 h, time 5 day): 6.15 MEQ/L
- SODIUM (120 h, time 5 day): 148.6 MEQ/L
- TOTAL BILIRUBIN (120 h, time 5 day): 0.17 mg/dL
- TOTAL PROTEIN (120 h, time 5 day): 6.1 G/DL
- URIC ACID (120 h, time 5 day): 1.87 mg/dL
- ABSOLUTE BASOPHIL (time 14 day): 0 CELLS/uL
- ABSOLUTE EOSINOPHIL (time 14 day): 155 CELLS/uL
- ABSOLUTE LYMPHOCYTE (time 14 day): 14503.4 CELLS/uL
- ABSOLUTE MONOCYTE (time 14 day): 573 CELLS/uL
- ABSOLUTE SEGMENTED NEUTROPHIL (time 14 day): 2768.6 CELLS/uL
- BASOPHIL (time 14 day): 0%
- EOSINOPHIL (time 14 day): 0.8%
- ERYTHROCYTE COUNT (time 14 day): 6.23 x10E6/uL
- HEMATOCRIT (time 14 day): 37.14%
- HEMOGLOBIN (time 14 day): 13.54 G/DL
- LEUKOCYTE COUNT (time 14 day): 18 x10E3/uL
- LYMPHOCYTE (time 14 day): 80.8%
- MEAN CORPUSCULAR HEMOGLOBIN (time 14 day): 21.72 pg
- MEAN CORPUSCULAR HEMOGLOBIN CONCENTRATION (time 14 day): 36.46 G/DL
- MEAN CORPUSCULAR VOLUME (time 14 day): 59.54 fL
- MONOCYTE (time 14 day): 3.2%
- NEUTROPHIL (time 14 day): 15.2%
- NUCLEATED RED BLOOD CELLS (time 14 day): 0 /100WBC
- PLATELET COUNT (time 14 day): 1175 x10E3/uL
- ALANINE AMINOTRANSFERASE (time 14 day): 43.6 u/L
- ALBUMIN (time 14 day): 4.1 G/DL
- ALKALINE PHOSPHATASE (time 14 day): 276.2 u/L
- ASPARTATE AMINOTRANSFERASE (time 14 day): 80 u/L
- BLOOD UREA NITROGEN (time 14 day): 19.6 mg/dL
- CARBON DIOXIDE (time 14 day): 29.4 mmol/L
- CHLORIDE (time 14 day): 100.6 MEQ/L
- CHOLESTEROL (time 14 day): 69.8 mg/dL
- CREATININE (time 14 day): 0.23 mg/dL
- GLUCOSE (time 14 day): 173.8 mg/dL
- LACTATE DEHYDROGENASE (time 14 day): 166.4 u/L
- LIPASE (time 14 day): 8.6 u/L
- PHOSPHORUS (time 14 day): 13.24 mg/dL
- POTASSIUM (time 14 day): 7.17 MEQ/L
- SODIUM (time 14 day): 144.9 MEQ/L
- TOTAL BILIRUBIN (time 14 day): 0.18 mg/dL
- TOTAL PROTEIN (time 14 day): 6.42 G/DL
- URIC ACID (time 14 day): 2.54 mg/dL
